Data on 41 compounds can be found in US9884832B2 (priority 2011, dated 2018).

The first test concerns the target AM2 S31N (serine→asparagine mutation at residue 31 in the M2 protein) (Influenza A virus, UniProt P0DOF5, S31N). The class given is cell-based, influenza virus A/Udorn/72.
Conditions: not given
Consider `Ic1ccc(CNC23CC4CC(CC(C4)C2)C3)s1` [Example 91a, N-((5-Iodothiophen-2-yl)methyl)adamantan-1-amine], for which the “S31N OOcyte Inhibition at 100 uM (%)” value is recorded as “A (key: (A)=31-95%; (B)=0-30%)”. With `Nc1ncc(CNC23CC4CC(CC(C4)C2)C3)s1` [Example 93a, 5-((adamantan-1-ylamino)methyl)thiazol-2-amine], the “S31N OOcyte Inhibition at 100 uM (%)” value was “B (key: (A)=31-95%; (B)=0-30%)”. Same read-out and setting: as for `Cc1cc(CNC23CC4CC(CC(C4)C2)C3)no1` [Example 95a, N-((5-methylisoxazol-3-yl)methyl)adamantan-1-amine], the entry is “A (key: (A)=31-95%; (B)=0-30%)”; as for `Cc1nc(CNC23CC4CC(CC(C4)C2)C3)no1` [Example 96a, N-((5-methyl-1,2,4-oxadiazol-3-yl)methyl)adamantan-1-amine], “A (key: (A)=31-95%; (B)=0-30%)”; as for `CC(C)c1nc(CNC23CC4CC(CC(C4)C2)C3)no1` [Example 102a, N-((5-isopropyl-1,2,4-oxadiazol-3-yl)methyl)adamantan-1-amine], “A (key: (A)=31-95%; (B)=0-30%)”. On the same count and under the same terms, as for `CC(C)(C)c1nc(CNC23CC4CC(CC(C4)C2)C3)no1` [Example 103a, N-((5-(tert-butyl)-1,2,4-oxadiazol-3-yl)methyl)adamantan-1-amine], the entry is “A (key: (A)=31-95%; (B)=0-30%)”; as for `c1c(CNC23CC4CC(CC(C4)C2)C3)noc1CN1CCOCC1` [Example 106a, N-((5-(morpholinomethyl)isoxazol-3-yl)methyl)adamantan-1-amine], “B (key: (A)=31-95%; (B)=0-30%)”; as for `c1c(CNC23CC4CC(CC(C4)C2)C3)noc1C1CC1` [Example 107a, N-((5-cyclopropylisoxazol-3-yl)methyl)adamantan-1-amine], “A (key: (A)=31-95%; (B)=0-30%)”. On the same count and under the same terms, as for `c1cc(C2CC2)sc1CNC12CC3CC(CC(C3)C1)C2` [Example 108a, N-((5-cyclopropylthiophen-2-yl)methyl)adamantan-1-amine], the entry is “A (key: (A)=31-95%; (B)=0-30%)”; as for `C1CCC(c2nc(CNC34CC5CC(CC(C5)C3)C4)no2)C1` [Example 109a, N-((5-cyclopentyl-1,2,4-oxadiazol-3-yl)methyl)adamantan-1-amine], “A (key: (A)=31-95%; (B)=0-30%)”; as for `c1ccc(-c2nc(CNC34CC5CC(CC(C5)C3)C4)c[nH]2)cc1` [Example 114a, N-((2-phenyl-1H-imidazol-4-yl)methyl)adamantan-1-amine], “B (key: (A)=31-95%; (B)=0-30%)”.

As for `Fc1ccc(-c2cc(CNC34CC5CC(CC(C5)C3)C4)no2)cc1` [Example 118a, N-((5-(4-fluorophenyl)isoxazol-3-yl)methyl)adamantan-1-amine], the “S31N OOcyte Inhibition at 100 uM (%)” value is recorded as “A (key: (A)=31-95%; (B)=0-30%)”. On the same count and under the same terms, as for `Clc1ccc(-c2cc(CNC34CC5CC(CC(C5)C3)C4)no2)cc1` [Example 119a, N-((5-(4-chlorophenyl)isoxazol-3-yl)methyl)adamantan-1-amine], the entry is “A (key: (A)=31-95%; (B)=0-30%)”. Same read-out and setting: as for `Cc1ccc(-c2cc(CNC34CC5CC(CC(C5)C3)C4)no2)cc1` [Example 120a, N-((5-(p-tolyl)isoxazol-3-yl)methyl)adamantan-1-amine], the entry is “A (key: (A)=31-95%; (B)=0-30%)”; as for `COc1ccc(-c2cc(CNC34CC5CC(CC(C5)C3)C4)on2)cc1` [Example 122a, N-((3-(4-methoxyphenyl)isoxazol-5-yl)methyl)adamantan-1-amine], “A (key: (A)=31-95%; (B)=0-30%)”. Same read-out and setting: the value for `c1ccc(-c2noc(CNC34CC5CC(CC(C5)C3)C4)n2)cc1` [Example 123a, N-((3-phenyl-1,2,4-oxadiazol-5-yl)methyl)adamantan-1-amine] was “A (key: (A)=31-95%; (B)=0-30%)”; that for `CC(C)(C)c1ccc(-c2noc(CNC34CC5CC(CC(C5)C3)C4)n2)cc1` [Example 124a, N-((3-(4-(tert-butyl)phenyl)-1,2,4-oxadiazol-5-yl)methyl)adamantan-1-amine] was “B (key: (A)=31-95%; (B)=0-30%)”; that for `FC(F)(F)c1cccc(-c2nc(CNC34CC5CC(CC(C5)C3)C4)no2)c1` [Example 125a, N-((5-(3-(trifluoromethyl)phenyl)-1,2,4-oxadiazol-3-yl)methyl)adamantan-1-amine] was “A (key: (A)=31-95%; (B)=0-30%)”. With `COc1ccc(-c2nc(CNC34CC5CC(CC(C5)C3)C4)no2)cc1` [Example 126a, N-((5-(4-methoxyphenyl)-1,2,4-oxadiazol-3-yl)methyl)adamantan-1-amine], the “S31N OOcyte Inhibition at 100 uM (%)” value is “A (key: (A)=31-95%; (B)=0-30%)”. Same read-out and setting: the value for `Cc1ccc(-c2nc(CNC34CC5CC(CC(C5)C3)C4)no2)cc1` [Example 128a, N-((5-(p-tolyl)-1,2,4-oxadiazol-3-yl)methyl)adamantan-1-amine] was “A (key: (A)=31-95%; (B)=0-30%)”.

As for `FC(F)(F)c1ccc(-c2nc(CNC34CC5CC(CC(C5)C3)C4)no2)cc1` [Example 129a, N-((5-(4-(trifluoromethyl)phenyl)-1,2,4-oxadiazol-3-yl)methyl)adamantan-1-amine], the “S31N OOcyte Inhibition at 100 uM (%)” value is “A (key: (A)=31-95%; (B)=0-30%)”.

On to `FC(F)(F)c1cccc(-c2nc(CNC34CC5CC(CC(C5)C3)C4)no2)c1` [Example 130a, N-((5-(3-(trifluoromethyl)phenyl)-1,2,4-oxadiazol-3-yl)methyl)adamantan-1-amine], for which the “S31N OOcyte Inhibition at 100 uM (%)” value is “A (key: (A)=31-95%; (B)=0-30%)”. On the same count and under the same terms, as for `c1ccc(-c2nc(CNC34CC5CC(CC(C5)C3)C4)no2)cc1` [Example 131a, N-((5-phenyl-1,2,4-oxadiazol-3-yl)methyl)adamantan-1-amine], the entry is “A (key: (A)=31-95%; (B)=0-30%)”; as for `c1ccc(-c2nc(CNC34CC5CC(CC(C5)C3)C4)cs2)cc1` [Example 132a, N-((2-phenylthiazol-4-yl)methyl)adamantan-1-amine], “B (key: (A)=31-95%; (B)=0-30%)”.

For the compound `c1cncc(-c2noc(CNC34CC5CC(CC(C5)C3)C4)n2)c1` [Example 135a, Adamantan-1-yl-(3-pyridin-3-yl-[1,2,4]oxadiazol-5-ylmethyl)-amine], the “S31N OOcyte Inhibition at 100 uM (%)” value is reported as “A (key: (A)=31-95%; (B)=0-30%)”. On the same count and under the same terms, the value for `c1csc(-c2ccc(CNC34CC5CC(CC(C5)C3)C4)o2)c1` [Example 138a, Adamantan-1-yl-(5-thiophen-2-yl-furan-2-ylmethyl)-amine] was “A (key: (A)=31-95%; (B)=0-30%)”; that for `Cc1oc(-c2cccs2)nc1CNC12CC3CC(CC(C3)C1)C2` [Example 145a, N-((5-methyl-2-(thiophen-2-yl)oxazol-4-yl)methyl)adamantan-1-amine] was “B (key: (A)=31-95%; (B)=0-30%)”; that for `c1csc(-c2nc(CNC34CC5CC(CC(C5)C3)C4)no2)c1` [Example 146a, N-((5-(thiophen-2-yl)-1,2,4-oxadiazol-3-yl)methyl)adamantan-1-amine] was “A (key: (A)=31-95%; (B)=0-30%)”.

Turning to `c1csc(-c2nnc(CNC34CC5CC(CC(C5)C3)C4)o2)c1` [Example 147a, Adamantan-1-yl-(5-thiophen-2-yl-[1,3,4]oxadiazol-2-ylmethyl)-amine], the “S31N OOcyte Inhibition at 100 uM (%)” value is on record as “A (key: (A)=31-95%; (B)=0-30%)”.

For `c1csc(-c2noc(CNC34CC5CC(CC(C5)C3)C4)n2)c1` [Example 148a, N-((3-(thiophen-2-yl)-1,2,4-oxadiazol-5-yl)methyl)adamantan-1-amine], the “S31N OOcyte Inhibition at 100 uM (%)” value is on record as “A (key: (A)=31-95%; (B)=0-30%)”. On the same count and under the same terms, the value for `c1csc(-c2cc(CNC34CC5CC(CC(C5)C3)C4)on2)c1` [Example 149a, N-((3-(thiophen-2-yl)isoxazol-5-yl)methyl)adamantan-1-amine] was “A (key: (A)=31-95%; (B)=0-30%)”; that for `c1cc(-c2cc(CNC34CC5CC(CC(C5)C3)C4)no2)cs1` [Example 150a, Adamantan-1-yl-(5-thiophen-3-yl-isoxazol-3-ylmethyl)-amine] was “A (key: (A)=31-95%; (B)=0-30%)”. On the same count and under the same terms, as for `c1csc(-c2nnc(CNC34CC5CC(CC(C5)C3)C4)s2)c1` [Example 151a, N-((5-(thiophen-2-yl)-1,3,4-thiadiazol-2-yl)methyl)adamantan-1-amine], the entry is “A (key: (A)=31-95%; (B)=0-30%)”. The same measure, in the same setting: as for `c1coc(-c2nc(CNC34CC5CC(CC(C5)C3)C4)no2)c1` [Example 160a, N-((5-(furan-2-yl)-1,2,4-oxadiazol-3-yl)methyl)adamantan-1-amine], the entry is “A (key: (A)=31-95%; (B)=0-30%)”. With `c1cn(-c2ccc(CNC34CC5CC(CC(C5)C3)C4)s2)cn1` [Example 161a, N-((5-(1H-imidazol-1-yl)thiophen-2-yl)methyl)adamantan-1-amine], the “S31N OOcyte Inhibition at 100 uM (%)” value is on record as “B (key: (A)=31-95%; (B)=0-30%)”. Consider `Fc1ccc(-c2nc(CNC34CC5CC(CC(C5)C3)C4)no2)cc1` [Example 163a], for which the “S31N OOcyte Inhibition at 100 uM (%)” value is reported as “A (key: (A)=31-95%; (B)=0-30%)”. The same measure, in the same setting: the value for `c1ccc(-c2cc(CNC34CC5CC(CC(C5)C3)C4)on2)cc1` [Example 164a] was “A (key: (A)=31-95%; (B)=0-30%)”. Still for that read-out and setting: as for `CCc1nc(CNC23CC4CC(CC(C4)C2)C3)no1` [Example 165a], the entry is “A (key: (A)=31-95%; (B)=0-30%)”; as for `C(NC12CC3CC(CC(C3)C1)C2)c1noc(C2CC2)n1` [Example 166a], “A (key: (A)=31-95%; (B)=0-30%)”. Same read-out and setting: the value for `c1ccc(C2=NOC(CNC34CC5CC(CC(C5)C3)C4)C2)cc1` (centres unmarked) [Example 167a, N-((3-phenyl-4,5-dihydroisoxazol-5-yl)methyl)adamantan-1-amine] was “A (key: (A)=31-95%; (B)=0-30%)”.

Still in this test, the particulars now being: pH 5.5.
For the compound `CSc1ccc(-c2cc(CNC34CC5CCC(CC(C5)C3)C4)no2)cc1` [Example 91b, (1S,3R,8S)—N-((5-(4-(methylthio)phenyl)isoxazol-3-yl)methyl)tricyclo[4.3.1.13,8]undecan-1-amine], the “S31N OOcyte Inhibition at 100 uM (%)” value is given as “A (key: (A)=31-95%; (B)=0-30%)”.
